Data on twelve molecules can be found in PubChem BioAssay (NCI).

“And” between values parts separate entries of the source, which are not always exact repeats. Equal entries are not always repeated.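 1) Cells in 96-well plates. 2) Compound, 48 h, 5 concentrations. 3) Linear interpolation between surrounding doses. 4) Unreached endpoint = highest concentration. GI50: concentration for 50% inhibition of growth. TGI: total growth inhibition.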

Among the test systems are A498 renal; BT-549 breast; CAKI-1 renal; HCT-15 colon; LOX IMVI melanoma; NCI/ADR-RES ovarian; OVCAR-3 ovarian; OVCAR-8 ovarian; TK-10 renal; U251 CNS.
Holding throughout (assay): DTP human tumour cell line panel, 48 h

One may read the TGI as the concentration giving total growth inhibition. A lower TGI goes with more potent growth arrest. In general, GI50 refers to the concentration that inhibits growth by half.

Regarding `CC(C)(C)OC(=O)NC(CSCc1ccc(C(=O)c2ccccc2)cc1)C(=O)N1CCN(CCCCN2c3ccccc3Sc3cc(N=[N+]=[N-])ccc32)CC1` (centres undefined), the TGI with A498 renal, with BT-549 breast, in the experiment on CAKI-1 renal, in the experiment with HCT-15 colon, in the experiment with LOX IMVI melanoma and in the experiment on NCI/ADR-RES ovarian was greater than 100 µM in each case. Further, the TGI in the experiment with OVCAR-3 ovarian, with OVCAR-8 ovarian, with TK-10 renal and with U251 CNS was greater than 100 µM throughout.
On to `COC(=O)[C@@]12CSC[C@]1(C(=O)OC)N[C@@H](c1ccccc1O)C2`, for which the TGI with A498 renal, with BT-549 breast, in the experiment on CAKI-1 renal, in the experiment on HCT-15 colon, in the experiment on NCI/ADR-RES ovarian and in the experiment with OVCAR-3 ovarian was greater than 100 µM throughout. Moreover, the TGI in the experiment with OVCAR-8 ovarian, in the experiment with TK-10 renal and in the experiment with U251 CNS was greater than 100 µM each time.
With `Cc1cc(=O)[nH]c2cc(NC(=O)C(C)NC(=O)C(C)NC(=O)C(C)NC(=O)OC(C)(C)C)ccc12` (centres undefined), the TGI in the experiment with A498 renal, in the experiment on BT-549 breast, with CAKI-1 renal, in the experiment with HCT-15 colon, in the experiment with LOX IMVI melanoma and in the experiment with NCI/ADR-RES ovarian was greater than 15 µM each time. The TGI with OVCAR-8 ovarian, in the experiment with TK-10 renal and with U251 CNS was greater than 15 µM each time.
As to `O=C(CCCc1cccc2[nH]c3c(c12)CN(Cc1ccccc1)CC3)c1ccc(F)cc1`, the TGI in the experiment with A498 renal, with BT-549 breast, with CAKI-1 renal, in the experiment with HCT-15 colon, with LOX IMVI melanoma and in the experiment with NCI/ADR-RES ovarian was greater than 100 µM throughout. The total growth inhibition concentration (TGI) in the experiment with OVCAR-3 ovarian, with OVCAR-8 ovarian, with TK-10 renal and with U251 CNS was greater than 100 µM in each case.
In the case of `COc1ccc2[nH]c3ccc4cc[n+](CCN5CCC(C6CCN(CC[n+]7ccc8ccc9[nH]c%10ccc(OC)cc%10c9c8c7)CC6)CC5)cc4c3c2c1`, the GI50 in the experiment with A498 renal was greater than 50 µM; in the experiment on CAKI-1 renal, 10.9 µM; in the experiment with HCT-15 colon, 0.266 µM; in the experiment with NCI/ADR-RES ovarian, 35.2 µM; in the experiment with OVCAR-3 ovarian, 42.6 µM; in the experiment on OVCAR-8 ovarian, 8.28 µM. In addition, the GI50 in the experiment on U251 CNS was greater than 50 µM. For the same molecule, the TGI was greater than 53.8 µM in the experiment on A498 renal; 50 µM in the experiment with BT-549 breast; 50 µM and 68.1 µM with CAKI-1 renal; 50 µM and > 58.6 µM with LOX IMVI melanoma; 50 µM and > 46.4 µM in the experiment with NCI/ADR-RES ovarian; 50 µM and > 76.2 µM in the experiment on OVCAR-3 ovarian. The TGI in the experiment with OVCAR-8 ovarian was 50 µM and > 100 µM; in the experiment on TK-10 renal, 27.2 µM; in the experiment on U251 CNS, greater than 52.3 µM.
`ClCCCN1CCN(CCCl)CC1`: the concentration for total growth inhibition (TGI) in the experiment on A498 renal stood at 774 µM; in the experiment on BT-549 breast, 423 µM; with CAKI-1 renal, 358 µM; with HCT-15 colon, 790 µM; in the experiment with LOX IMVI melanoma, 608 µM; in the experiment on NCI/ADR-RES ovarian, 628 µM. The TGI is 430 µM in the experiment on OVCAR-3 ovarian, 348 µM with OVCAR-8 ovarian, greater than 903 µM with TK-10 renal and 543 µM with U251 CNS. Besides, the GI50 in the experiment on LOX IMVI melanoma is 23.9 µM; in the experiment with NCI/ADR-RES ovarian, 66.3 µM; in the experiment with OVCAR-3 ovarian it was 84.3 µM; in the experiment with U251 CNS it was 79.6 µM.
As for `Cc1cccc2c(=O)c3cccc([C@H](C)C(=O)O)c3oc12`, the TGI in the experiment with A498 renal, in the experiment on BT-549 breast, in the experiment on CAKI-1 renal, with HCT-15 colon, in the experiment on LOX IMVI melanoma and in the experiment on NCI/ADR-RES ovarian was greater than 100 µM in each case. The TGI in the experiment with OVCAR-3 ovarian, in the experiment with OVCAR-8 ovarian, with TK-10 renal and in the experiment with U251 CNS was greater than 100 µM in each case.
On to `COc1ccc2c(c1)/C(=C\c1c(Cl)nc3n1CCS3)C(=O)N2`, for which the concentration for total growth inhibition (TGI) was 33.2 µM in the experiment on A498 renal; 44 µM in the experiment with BT-549 breast; greater than 100 µM in the experiment on CAKI-1 renal; 62.1 µM in the experiment on HCT-15 colon; greater than 100 µM in the experiment on LOX IMVI melanoma; 88.3 µM in the experiment on NCI/ADR-RES ovarian. Also, the TGI in the experiment on OVCAR-3 ovarian is 17.8 µM; in the experiment with OVCAR-8 ovarian, greater than 100 µM; with TK-10 renal, 28.1 µM; in the experiment on U251 CNS it was 57.6 µM.
On to `CCOC(CBr)OC1C(=O)OCC1(C)C` (centres undefined), for which the total growth inhibition concentration (TGI) with A498 renal, in the experiment on BT-549 breast, with CAKI-1 renal, in the experiment on HCT-15 colon, in the experiment with LOX IMVI melanoma and in the experiment with NCI/ADR-RES ovarian was greater than 100 µM each time. Moreover, the TGI in the experiment with OVCAR-8 ovarian, in the experiment on TK-10 renal and with U251 CNS was greater than 100 µM each time.
`Cc1nc2c(Cl)cc(Cl)cc2c2c1CCO2`: the TGI in the experiment with A498 renal, with BT-549 breast, in the experiment with CAKI-1 renal, in the experiment on HCT-15 colon, in the experiment with LOX IMVI melanoma and in the experiment on NCI/ADR-RES ovarian was greater than 100 µM each time. For the same molecule, the TGI in the experiment with OVCAR-8 ovarian, in the experiment on TK-10 renal and in the experiment with U251 CNS was greater than 100 µM in each case.
Take `COc1cc(/C=C/C(=O)CC(=O)/C=C/c2cc(C)c(O)c(OC)c2)cc(C)c1O`: the TGI in the experiment on A498 renal, with BT-549 breast, with CAKI-1 renal, in the experiment with HCT-15 colon, in the experiment on LOX IMVI melanoma and in the experiment on NCI/ADR-RES ovarian was greater than 100 µM in each case. Further, the TGI with OVCAR-3 ovarian, with OVCAR-8 ovarian and in the experiment with U251 CNS was greater than 100 µM in each case.
In the case of `NCCCn1c(Cl)nc2ccccc21`, the TGI in the experiment on A498 renal, with BT-549 breast, with CAKI-1 renal, in the experiment with HCT-15 colon, with LOX IMVI melanoma and in the experiment on NCI/ADR-RES ovarian was greater than 100 µM in each case. Further, the TGI in the experiment on OVCAR-3 ovarian, in the experiment with OVCAR-8 ovarian and in the experiment with U251 CNS was greater than 100 µM in each case.
